Experimental data published in ChEMBL document CHEMBL3880421, “Indazole compounds and pharmaceutical compositions for inhibiting protein kinases, and methods for their use” (2003).

What was measured:
[1] = Antiproliferative activity against VEGF-stimulated HUVEC cells assessed as reduction in cell viability at 0.5 nM preincubated for 1 hr followed by addition of VEGF measured after 72 hrs by MTT assay; type: functional; settings: Homo sapiens
[2] = Antiproliferative activity against VEGF-stimulated HUVEC cells assessed as reduction in cell viability at 2 nM preincubated for 1 hr followed by addition of VEGF measured after 72 hrs by MTT assay; type: functional; settings: Homo sapiens

Structure (SMILES)	inhibition at 0.0005 µM [1] [%]	inhibition at 0.002 µM [2] [%]
O=C(NC1CCSC1=O)c1ccccc1Nc1ccc2c(/C=C/c3ccccn3)n[nH]c2c1 (centres undefined)	25	40
O=C(N[C@@H]1CCCC[C@@H]1O)c1ccccc1Nc1ccc2c(/C=C/c3ccccn3)n[nH]c2c1	26	59
O=C(NCC(F)(F)F)c1ccccc1Nc1ccc2c(/C=C/c3ccccn3)n[nH]c2c1	34 to 53	61 to 95
O=C1CSC(NC(=O)c2ccccc2Nc2ccc3c(/C=C/c4ccccn4)n[nH]c3c2)=N1	9	-9
O=C(Cc1ccccc1)NNC(=O)c1ccccc1Nc1ccc2c(/C=C/c3ccccn3)n[nH]c2c1	31	66
COc1cccc(CNC(=O)c2ccccc2Nc2ccc3c(/C=C/c4ccccn4)n[nH]c3c2)c1	58	100
O=C(NCCN1CCCC1)c1ccccc1Nc1ccc2c(/C=C/c3ccccn3)n[nH]c2c1	40	31
O=C(N[C@@H]1CC=CC[C@@H]1CO)c1ccccc1Nc1ccc2c(/C=C/c3ccccn3)n[nH]c2c1	58	37
O=C(NCc1ccccn1)c1ccccc1Nc1ccc2c(/C=C/c3ccccn3)n[nH]c2c1	6	43
Cc1ccc(N(C)NC(=O)c2ccccc2Nc2ccc3c(/C=C/c4ccccn4)n[nH]c3c2)nn1	18	-3
CN(C)CC(C)(C)CNC(=O)c1ccccc1Nc1ccc2c(/C=C/c3ccccn3)n[nH]c2c1	38	5
Cc1cnc(NC(=O)c2ccccc2Nc2ccc3c(/C=C/c4ccccn4)n[nH]c3c2)s1	20	92
CCN(CC)C/C=C/CNC(=O)c1ccccc1Nc1ccc2c(/C=C/c3ccccn3)n[nH]c2c1	10	29
O=C(NNc1ccccc1)c1ccccc1Nc1ccc2c(/C=C/c3ccccn3)n[nH]c2c1	18	29
O=C(NNCCO)c1ccccc1Nc1ccc2c(/C=C/c3ccccn3)n[nH]c2c1	33	18
CC1CC(NC(=O)c2ccccc2Nc2ccc3c(/C=C/c4ccccn4)n[nH]c3c2)CC(C)(C)C1 (centres undefined)	25	31
O=C(NC1CCCCC1)c1ccccc1Nc1ccc2c(/C=C/c3ccccn3)n[nH]c2c1	12	76
CS(=O)(=O)NNC(=O)c1ccccc1Nc1ccc2c(/C=C/c3ccccn3)n[nH]c2c1	9	1
O=C(Nn1cnnc1)c1ccccc1Nc1ccc2c(/C=C/c3ccccn3)n[nH]c2c1	17	13

Structure (SMILES)	inhibition at 0.0005 µM [1] [%]	inhibition at 0.002 µM [2] [%]
C[N+]12CC[C@@H]1C(NC(=O)c1ccccc1Nc1ccc3c(/C=C/c4ccccn4)n[nH]c3c1)C2 (some centres undefined)	15	-9
CC(NC(=O)c1ccccc1Nc1ccc2c(/C=C/c3ccccn3)n[nH]c2c1)c1ccccc1 (centres undefined)	30	94
CC(CNC(=O)c1ccccc1Nc1ccc2c(/C=C/c3ccccn3)n[nH]c2c1)c1ccccc1 (centres undefined)	26	83
CN(C)CCCCCCNC(=O)c1ccccc1Nc1ccc2c(/C=C/c3ccccn3)n[nH]c2c1	42	22
CCC(C)CNC(=O)c1ccccc1Nc1ccc2c(/C=C/c3ccccn3)n[nH]c2c1 (centres undefined)	24	84
O=C(NCCC1OCCO1)c1ccccc1Nc1ccc2c(/C=C/c3ccccn3)n[nH]c2c1	38	68
CCN1CCC[C@H]1CNC(=O)c1ccccc1Nc1ccc2c(/C=C/c3ccccn3)n[nH]c2c1	15	23
O=CNNC(=O)c1ccccc1Nc1ccc2c(/C=C/c3ccccn3)n[nH]c2c1	28	29
O=C(NC1CCCC1)c1ccccc1Nc1ccc2c(/C=C/c3ccccn3)n[nH]c2c1	43	96
CCC(CC)NC(=O)c1ccccc1Nc1ccc2c(/C=C/c3ccccn3)n[nH]c2c1	25	14
Nc1nnc(NC(=O)c2ccccc2Nc2ccc3c(/C=C/c4ccccn4)n[nH]c3c2)[nH]1	-6	41
CNNC(=O)c1ccccc1Nc1ccc2c(/C=C/c3ccccn3)n[nH]c2c1	13	31
Cc1ncc(CNC(=O)c2ccccc2Nc2ccc3c(/C=C/c4ccccn4)n[nH]c3c2)c(N)n1	16	17
CCCCCCC(C)NC(=O)c1ccccc1Nc1ccc2c(/C=C/c3ccccn3)n[nH]c2c1 (centres undefined)	35	63
Nc1ccc(CCNC(=O)c2ccccc2Nc2ccc3c(/C=C/c4ccccn4)n[nH]c3c2)cc1	32	31
O=C(NN1CCOCC1)c1ccccc1Nc1ccc2c(/C=C/c3ccccn3)n[nH]c2c1	1	53
CCN(CC)CCNC(=O)c1ccccc1Nc1ccc2c(/C=C/c3ccccn3)n[nH]c2c1	39	15
O=C(CNC(=O)c1ccccc1Nc1ccc2c(/C=C/c3ccccn3)n[nH]c2c1)NO	5	9
NS(=O)(=O)c1ccc(CCNC(=O)c2ccccc2Nc2ccc3c(/C=C/c4ccccn4)n[nH]c3c2)cc1	26	37

Structure (SMILES)	inhibition at 0.0005 µM [1] [%]	inhibition at 0.002 µM [2] [%]
O=C(NCCCN1CCCCCC1)c1ccccc1Nc1ccc2c(/C=C/c3ccccn3)n[nH]c2c1	25	-5
CN1CCN(NC(=O)c2ccccc2Nc2ccc3c(/C=C/c4ccccn4)n[nH]c3c2)CC1	19 to 38	-1
O=C(NCCc1ccccn1)c1ccccc1Nc1ccc2c(/C=C/c3ccccn3)n[nH]c2c1	49	91
O=C(NCCCCO)c1ccccc1Nc1ccc2c(/C=C/c3ccccn3)n[nH]c2c1	35	40
CCCNC(=O)c1ccccc1Nc1ccc2c(/C=C/c3ccccn3)n[nH]c2c1	33	64
O=C(O)CNC(=O)CCNC(=O)c1ccccc1Nc1ccc2c(/C=C/c3ccccn3)n[nH]c2c1	49	-9
CC1(C)CC(NC(=O)c2ccccc2Nc2ccc3c(/C=C/c4ccccn4)n[nH]c3c2)C(C)(C)N1O (centres undefined)	15	8
CCC(C)NC(=O)c1ccccc1Nc1ccc2c(/C=C/c3ccccn3)n[nH]c2c1 (centres undefined)	29	58
O=C(NNC(=O)c1ccccc1Nc1ccc2c(/C=C/c3ccccn3)n[nH]c2c1)c1cccs1	65	90
O=C(NCCN1CCNC1=O)c1ccccc1Nc1ccc2c(/C=C/c3ccccn3)n[nH]c2c1	5	1
CC(C)(C(=O)NNC(=O)c1ccccc1Nc1ccc2c(/C=C/c3ccccn3)n[nH]c2c1)n1cncn1	34	90
O=C(Nc1nccs1)c1ccccc1Nc1ccc2c(/C=C/c3ccccn3)n[nH]c2c1	33	94
COC(CNC(=O)c1ccccc1Nc1ccc2c(/C=C/c3ccccn3)n[nH]c2c1)OC	47	89
O=C(NCCCN1CCOCC1)c1ccccc1Nc1ccc2c(/C=C/c3ccccn3)n[nH]c2c1	5	14
O=C(NNC(=O)c1ccccc1Nc1ccc2c(/C=C/c3ccccn3)n[nH]c2c1)c1ccccc1O	30	61
O=C(NOCc1ccccc1)c1ccccc1Nc1ccc2c(/C=C/c3ccccn3)n[nH]c2c1	70 to 74	101 to 111
CN(NC(=O)c1ccccc1Nc1ccc2c(/C=C/c3ccccn3)n[nH]c2c1)C(N)=S	12	29
CC(C)(CO)CNC(=O)c1ccccc1Nc1ccc2c(/C=C/c3ccccn3)n[nH]c2c1	8	22
CN(CCCNC(=O)c1ccccc1Nc1ccc2c(/C=C/c3ccccn3)n[nH]c2c1)c1ccccc1	18	25
